Laboratory results: US9283160B2, “Stabilization of cosmetic compositions” (BASF SE, priority 2009, dated 2016)

Assay: Photodegradation of UV absorber combinations, plate-test (recovery after UV irradiation)
Type: physicochemical
Conditions: 0-50 MED UV; for Photostabilization of components (e) and (f) after irradiation (summary of Table 5): in presence of piperazine bi-aminobenzophenone
Description: For the determination of photodegradation the so-called “plate-test” is employed: • 2 μl/cm^2 of the formulations are spread on quartz plates (sand-blasted surface of 2.8 cm^2), and rinsed off the plates after 0, 5, 10, 20, and 50 MED of UV irradiation using an Atlas CPS+ solar simulator.
The substances tagged with an asterix (*) are those the recovery percentages refer to. The percentage of component (a) refers to the active.
The experimental error in terms of the standard deviation is in the range of ±3%.

| SMILES | Photostabilization of components (e) and (f) after irradiation (summary of Table 5) | Photostabilization of component (b) after irradiation (summary of Table 4) (combination with piperazine bi-aminobenzophenone, bis-ethylhexyloxyphenol methoxyphenyl triazine added) | Photostabilization of component (b) after irradiation (summary of Table 3) (combination with piperazine bi-aminobenzophenone, octocrylene added) |
| --- | --- | --- | --- |
| CCCCC(CC)COC(=O)c1ccc(Nc2nc(Nc3ccc(C(=O)NC(C)(C)C)cc3)nc(Nc3ccc(C(=O)OCC(CC)CCCC)cc3)n2)cc1 (stereo not shown) [di-octyl butamido triazone, Benzoic acid, 4,4′-[[6-[[4-[[(1,1-dimethylethyl)amino]carbonyl]-phenyl]amino]1,3,5-triazine-2,4-diyl]diimino]bis-, bis(2-ethyl-hexyl)ester] | photostabilized in the presence of piperazine bi-aminobenzophenone |  |  |
| CCCCC(CC)COC(=O)c1ccc(Nc2nc(Nc3ccc(C(=O)OCC(CC)CCCC)cc3)nc(Nc3ccc(C(=O)OCC(CC)CCCC)cc3)n2)cc1 (stereo not shown) [ethylhexyl triazone, Ethylhexyl triazone] | photostabilized in the presence of piperazine bi-aminobenzophenone |  |  |
| CCCCC(CC)COC(=O)C=Cc1ccc(OC)cc1 (stereo not shown) [ethylhexyl methoxycinnamate, 2-ethylhexyl 4-methoxycinnamate] |  | can be stabilized by addition of bis-ethylhexyloxyphenol methoxyphenyl triazine | can be stabilized by addition of octocrylene |
